Common to all, as to test: Antibacterial activity in vitro, Minimal Inhibitory Concentration
What all share (assay type): cell-based

Assay [1] has as its system E. Coli Brig. The source says: (§1) The compounds of the invention are new chemical compounds that are used as pharmacological agents and especially as broad spectrum antibacterial agents. They are active in vitro against strains of both gram-positive and gram-negative bacteria. The activity of the compounds is illustrated by the results shown in the table for certain of the preferred compounds.

Assay [2] has as its system E. Coli Vogel.
Description: as §1

Assay [3] has as its system Entero C. IMM-11.
Description: as §1

Assay [4] concerns Klebs. Pneu. MGH-2.
Description: as §1

The test system of assay [5] is Prot. Vulg. 1810.
Description: as §1

The test system of assay [6] is Pseudo. Aeru 28.
Description: as §1

Assay [7] deals with Pseudo. Aeru BRK.
Description: as §1

Assay [8] deals with Pseudo. Aeru UI-18.
Description: as §1

The subject of assay [9] is Serr. Mar. IMM-16.
Description: as §1

In assay [10] the test system is Staph Aureus UC-76.
Description: as §1

Here are results for 1 substance from patent publication US4382089A, “Antibacterial amide compounds, compositions thereof and methods of using them” (Warner-Lambert Company, priority 1982, dated 1983).

Regarding “N-[1,4-Dihydro-4-oxo-7-[[(5-oxo-2-pyrrolidinyl)carbonyl]-amino]-3-quinolinylcarbonyl]amoxicillin”, the “Minimal Inhibitory Concentration” value in assay [1] was 3.1 µg/mL; in assay [2] it was 0.4 µg/mL; in [3], 3.1 µg/mL; in assay [4], 3.1 µg/mL; in assay [5], 0.8 µg/mL; in assay [6] it was 0.8 µg/mL. The “Minimal Inhibitory Concentration” value in assay [7] turned out to be 0.4 µg/mL; in assay [8], 3.1 µg/mL; in assay [9] it was 1.6 µg/mL; in assay [10], 0.8 µg/mL.
